Test results from patent publication US20100240746A1, “STEREOISOMERS OF TRICYCLODECAN-9-YL-XANTHOGENATE” (LUMAVITA AG, priority 2007, published 2010).
Values after ≈ are worked out from the molar mass of the structure shown. “Also recorded” adds a separate entry of the source.

Key:
[1] = system: HPV-31-infected CIN612 9E keratinocytes; assay: Short-term study, effect on cell proliferation of HPV-31-infected keratinocytes; assay type: cell-based, human papilloma virus; conditions: Human papillomavirus, Keratinocyte; 72 hrs, 37° C.; 50% of uninhibited growth
Description: The inhibitory activities of optically active (−)-enantiomer 1A against human papilloma virus were evaluated using HPV-31-infected CIN612 9E keratinocytes (Meyers et al., Science 1992, 257, 971-973).
Effect on cell proliferation. HPV-31 infected cells were seeded in 96-well plates containing 1×10^6 mitomycin C treated 3T3 cells (1×10^4 cells/well), at a density of 0.5×10^6 cells per plate (0.5×10^4 cells/well) in E medium. After the plates were incubated in a CO2 incubator under 5% CO2 at 37° C. in 100% humidity for six hrs, the cell culture medium was removed and fresh E medium containing 0.85 g/L NaHCO3 and a test compound at a series of concentrations (0, 0.5, 1, 2, 4, 8, 16, 32, 64, and 128 μg/mL), or positive control (interferon γ at 200 IU/mL) was added. […] After the plates were dried on blotting paper upside down overnight, 0.1 mL of ethanol/acetic acid (99:1) was added to each well and optical density at 595 nm was determined in an ELISA reader.
Dose response curves were established by plotting growth against concentrations of the test compound or control. ICso values were determined from the dose response curves from crossing points of the dose response curves with a line parallel to the x-axis corresponding to 50% of uninhibited growth.

CIN 612 9E cells = assay: Long-term study, cell morphology; assay type: cell-based, human papilloma virus; conditions: 10 μg/mL, after five passages
Description: HPV-31 infected cells (3×10^6) were dispensed into 14.5 cm dishes containing fresh E medium and 1×10^6 cells of mitomycin C-treated 3T3 fibroblast feeders. The dishes were incubated in a CO2 incubator under 5% CO2 at 37° C. in 100% humidity. Human A431 epithelial cancer cells were used as HPV-uninfected negative controls. After 6 hr incubation, the cell culture medium was removed and fresh E medium containing 0.85 g/L NaHCO3 and a test compound at concentrations of 10 and 3.3 μg/mL, or control (interferon γ at 200 IU/mL) were added. For each concentration, 4 dishes were prepared. The dishes were incubated at 37° C. in a CO2 incubator. The culture medium was replaced to new E medium containing each concentration of the test compound or control in every 72 hrs. After seven days, or when untreated cells became confluent, one dish of each group was harvested for DNA/RNA extraction, followed by Southern/Northern Blot analysis; and one dish was trypsinized, cell number were determined and cells were seeded in three new dishes, treated and cultured as described above. This procedure was repeated for 9 passages. During these passages, morphology of cells and cell density were monitored.

actin specific RNA = assay: Short-term study, effect on control RNA expression; assay type: cell-based; conditions: 0-32 μg/mL, 72 hrs
Description: Effect on HPV-31 specific DNA and RNA. HPV-31 infected cells (3×10^6) were dispensed into 14.5 cm dishes containing fresh E culture medium and 1×10^6 mitomycin C-treated J2 3T3 fibroblast feeders. After 6 hrs, fresh medium containing 0.85 g/L NaHCO3 and a test compound at a series of concentrations (0, 0.5, 1, 2, 4, 8, 16, and 32 μg/mL) were added. All samples were tested in duplicates at each concentration. After incubation at 37° C. for 72 hrs, the feeder cells were removed with 4 mM EDTA, and DNA and RNA was then isolated. The isolated DNA and RNA were analyzed in Southern and Northern Blot gels for HPV-31 specific sequences. Human A431 epithelial cancer cells were used as HPV-uninfected negative control. X-ray films were scanned and optical densities of HPV-31 specific DNA and major mRNA species were integrated.
Dose response curves were established by plotting integrated values against the concentrations of the test compound.

[2] = system: Herpes simplex virus type-2 (HSV-2); assay: Inhibition of HSV-2 (plaque assay; Calu-6 infected, RITA cells for plaques); assay type: cell-based
Description: Calu-6 cells and RITA cells were grown in DMEM cell culture medium containing 10% fetal calf serum in CO2 incubator under 5% CO2 at 37° C. with 100% humidity.
For HSV-2 inhibition, Calu-6 cells were seeded in 96 well plates at a density of 3×10^6 cells per plate in the DMEM cell culture medium. The plates were incubated at 37° C. in the presence of 5% CO2 for 24 hr. The DMEM cell culture medium in the plates was removed and the cells were infected with Herpes simplex virus type-2 at 50 plaque forming units per well. After incubation at 37° C. for 60 min, test compounds in DMEM cell culture medium at a series of concentrations were added. The plates were incubated at 37° C. in the presence of 5% CO2 for 48 hr. The plates were frozen at −20° C. prior to further analysis. After thawing at room temperature, supernatants containing infectious virus particles were prepared by centrifuging the supernatant from each well at 18,000 g at 4° C. for 5 min. The supernatant was further diluted before assay.
RITA cells were seeded in 24 well Linbra plates at a density of 4×10^6 cells per plate in 2 mL of DMEM cell culture medium. The plates were incubated at 37° C. in the presence of 5% CO2 for 24 hr. After the removal of the cell culture medium, 0.1 mL of the diluted supernatants was added and the plates were incubated at 37 C for 1 hr. DMEM cell medium containing 10% fetal calf serum and 0.5% methyl cellulose was added and the plates were incubated at 37 for 48 hr. The plates were then washed with PBS, fixed with 3% formaldehyde solution containing 0.9% NaCl for 1 min, washed by water for 10 sec, and dried overnight. For detection, the plates were then stained with crystal violet solution for 5 min at room temperature, washed 5 times with water, and dried at room temperature overnight. The number of plaques was determined macroscopically. The number of plaques per well was then multiplied with the dilution factor. Dose response curves were obtained by plotting the number of plaques/0.1 mL against compound concentration. The therapeutic index was also calculated for each compound by dividing LD50 with IC50.

With `S=C(S)OC1CC2CC1C1CCCC21` (single isomer, unassigned; (-)) [(−)-Enantiomer 1A, (−)-O-exo/C-exo-tricyclo[5.2.1.0^2,6]-dec-9-yl-xanthic acid] the EC50 [1] was 16 mg/L (≈ 70.1 µM), the morphology of cells (CIN 612 9E cells) was “notable change in the morphology; also recorded: growing more organized like untransformed keratinocytes; also recorded: contact inhibited when cultures grew to confluency; also recorded: acquired a flat round shape” and the “expression of the control RNA (actin specific RNA)” value (actin specific RNA) was “only affected at the highest concentration of 32 μg/mL”. For the same compound, the IC50 ([2]; Calu-6 cells, 48 hr, 50 plaque forming units per well) was 9.08 ± 3.40 mg/L (≈ 39.8 µM) and the “Therapeutic Index” value ([2]; LD50 (Calu-6) divided by IC50 (HSV-2), 2880 min) was 10.4.
